Assay results reported in patent US20250049926A1, “PHARMACEUTICAL COMPOSITIONS COMPRISING MODIFIED BETACYCLODEXTRINS” (priority 2021, published 2025).

Assay: Solubility measurement of saturated solutions by HPLC at room temperature (0 h and 24 h)
Format: physicochemical
Details: for solubility at 0 h / solubility at 24 h: thermodynamic from solid
Protocol: The vial contents are prepared starting with 2.5 mg of the compound of formula (I). The primary excipient is added followed by any further excipient and then the buffered water to a total volume of 500 μL. All components are mixed in a vortex mixer for ca. 5 minutes. If everything is dissolved an additional 2.5 mg of the compound of formula (I) is added and vortexed again for ca. 5 minutes. This is repeated until a saturated solution (suspension) is obtained.
The solubility in vial 1 is measured immediately as described below.
To measure solubility 400 μl of the suspension are taken and placed in a centrifugation device above a 0.2 μm filter. Centrifugation is performed at 14,000 rpm for 10 minutes and if necessary repeated for additional 10 minutes. The filter is removed from the vial and 100 μL is taken and diluted with 400 μL high-performance liquid chromatography (HPLC) diluent solution (see below) or diluted with 900 μL HPLC diluent solution in the event 5 mg or more of the compound of formula (I) was used. The pH of the solution is measured. A further 100 μL of the vial solution is taken and diluted with 400 μL of HPLC diluent solution or diluted with 900 μL HPLC diluent solution in the event 5 mg or more of the compound of formula (I) was used. The assay of the solution versus control stock solution is measured by HPLC and the solubility is calculated as described below. The HPLC diluent solution is 0.1% trifluoroacetic acid (TFA) in acetonitrile (ACN) and water (1:1 v/v).
All solubility tests are performed at room temperature.
The HPLC method for assessing solubility is performed as follows:
The solubility of the compound of formula (I) is calculated according to the following formula:
[formula] • Solubility=solubility of compound of formula (I) (mg/mL) • A=peak area of the compound of the sample tested • a=value of constant “a” in Linear regression equation y=ax+b • b=value of constant “b” in Linear regression equation y=ax+b • n=dilution time • Formulations for stability assessment are prepared as follows: […]

[1] = buffered water with excipients, pH 2, aqueous with cosolvent or surfactant or cyclodextrin, CBS 30 mM pH 2.0, NaCl 3 mg/mL, SBE-beta-CD 40 mg/mL, pH exp 2.2

Structure (SMILES): COc1cc(N2CCNCC2)ccc1Nc1ncc2c(n1)-n1ccc(C(=O)Nc3c(C)cccc3C)c1CC2 [compound of formula (I)]
- effect of additional excipient on solubility with SBE-beta-CD (Kollidon 12 PF, Kolliphor P188, soybean lecithin): very small impact on solubility
- effect of additional excipient on solubility with SBE-beta-CD (PEG 400, glycerol, propylene glycol and PEG 4000): do not increase the solubility
- effect of additional excipient on solubility with SBE-beta-CD (addition of Tween 80): slightly improves solubility
- effect of additional excipient on solubility with SBE-beta-CD (addition of carboxymethylcellulose sodium, solution sticky at 24 hours): decreases solubility
- solubility at 0 h (buffered water with excipient (saturated solution), pH 4, aqueous buffer, CBS 30 mM pH 4.0, Ethanol 20 mg/mL, pH exp 4.1): 160 µg/mL
- solubility at 24 h (buffered water with excipient (saturated solution), pH 4, aqueous buffer, CBS 30 mM pH 4.0, Ethanol 20 mg/mL, pH exp 4.2): 110 µg/mL
- solubility at 0 h (buffered water with excipient (saturated solution), pH 4, aqueous buffer, CBS 30 mM pH 4.0, PEG 400 20 mg/mL, pH exp 4.1): 220 µg/mL
- solubility at 24 h (buffered water with excipient (saturated solution), pH 4, aqueous buffer, CBS 30 mM pH 4.0, PEG 400 20 mg/mL, pH exp 4.3): 150 µg/mL
- solubility at 0 h (buffered water with excipient (saturated solution), pH 4, aqueous with cosolvent or surfactant or cyclodextrin, CBS 30 mM pH 4.0, NaCl 3 mg/mL, HP-beta-CD 40 mg/mL, pH exp 4.10): 1670 µg/mL
- solubility at 24 h (buffered water with excipient (saturated solution), pH 4, aqueous with cosolvent or surfactant or cyclodextrin, CBS 30 mM pH 4.0, NaCl 3 mg/mL, HP-beta-CD 40 mg/mL, pH exp 4.28): 980 µg/mL
- solubility at 0 h (buffered water with excipient (saturated solution), pH 4, aqueous with cosolvent or surfactant or cyclodextrin, CBS 30 mM pH 4.0, NaCl 3 mg/mL, SBE-beta-CD 10 mg/mL, pH exp 4.1): 890 µg/mL
- solubility at 24 h (buffered water with excipient (saturated solution), pH 4, aqueous with cosolvent or surfactant or cyclodextrin, CBS 30 mM pH 4.0, NaCl 3 mg/mL, SBE-beta-CD 10 mg/mL, pH exp 4.2): 1110 µg/mL
- solubility at 0 h (buffered water with excipient (saturated solution), pH 4, aqueous with cosolvent or surfactant or cyclodextrin, CBS 30 mM pH 4.0, NaCl 3 mg/mL, SBE-beta-CD 25 mg/mL, pH exp 4.1): 1840 µg/mL
- solubility at 24 h (buffered water with excipient (saturated solution), pH 4, aqueous with cosolvent or surfactant or cyclodextrin, CBS 30 mM pH 4.0, NaCl 3 mg/mL, SBE-beta-CD 25 mg/mL, pH exp 4.2): 2540 µg/mL
- solubility at 0 h (buffered water with excipient (saturated solution), pH 4, aqueous with cosolvent or surfactant or cyclodextrin, CBS 30 mM pH 4.0, NaCl 3 mg/mL, SBE-beta-CD 40 mg/mL, pH exp 4.0): 2480 µg/mL
- solubility at 24 h (buffered water with excipient (saturated solution), pH 4, aqueous with cosolvent or surfactant or cyclodextrin, CBS 30 mM pH 4.0, NaCl 3 mg/mL, SBE-beta-CD 40 mg/mL, pH exp 4.2): 3800 µg/mL
- solubility at 0 h (buffered water with excipient (saturated solution), pH 4, aqueous with cosolvent or surfactant or cyclodextrin, CBS 30 mM pH 4.0, Ethanol 50 mg/mL, pH exp 4.2): 190 µg/mL
- solubility at 24 h (buffered water with excipient (saturated solution), pH 4, aqueous with cosolvent or surfactant or cyclodextrin, CBS 30 mM pH 4.0, Ethanol 50 mg/mL, pH exp 4.3): 90 µg/mL
- solubility at 0 h (buffered water with excipient (saturated solution), pH 4, aqueous with cosolvent or surfactant or cyclodextrin, CBS 30 mM pH 4.0, Ethanol 100 mg/mL, pH exp 4.2): 260 µg/mL
- solubility at 24 h (buffered water with excipient (saturated solution), pH 4, aqueous with cosolvent or surfactant or cyclodextrin, CBS 30 mM pH 4.0, Ethanol 100 mg/mL, pH exp 4.4): 140 µg/mL
- solubility at 0 h (buffered water with excipient (saturated solution), pH 4, aqueous with cosolvent or surfactant or cyclodextrin, CBS 30 mM pH 4.0, Glycerol 50 mg/mL, pH exp 4.1): 180 µg/mL
- solubility at 24 h (buffered water with excipient (saturated solution), pH 4, aqueous with cosolvent or surfactant or cyclodextrin, CBS 30 mM pH 4.0, Glycerol 50 mg/mL, pH exp 4.3): 120 µg/mL
- solubility at 0 h (buffered water with excipient (saturated solution), pH 4, aqueous with cosolvent or surfactant or cyclodextrin, CBS 30 mM pH 4.0, Glycerol 100 mg/mL, pH exp 4.1): 210 µg/mL
- solubility at 24 h (buffered water with excipient (saturated solution), pH 4, aqueous with cosolvent or surfactant or cyclodextrin, CBS 30 mM pH 4.0, Glycerol 100 mg/mL, pH exp 4.3): 130 µg/mL
- solubility at 0 h (buffered water with excipient (saturated solution), pH 4, aqueous with cosolvent or surfactant or cyclodextrin, CBS 30 mM pH 4.0, Glycerol 500 mg/mL, pH exp 4.6): 1060 µg/mL
- solubility at 24 h (buffered water with excipient (saturated solution), pH 4, aqueous with cosolvent or surfactant or cyclodextrin, CBS 30 mM pH 4.0, Glycerol 500 mg/mL, pH exp 4.8): 260 µg/mL
- solubility at 0 h (buffered water with excipient (saturated solution), pH 4, aqueous with cosolvent or surfactant or cyclodextrin, CBS 30 mM pH 4.0, PEG 100 mg/mL, pH exp 4.3): 600 µg/mL
- solubility at 24 h (buffered water with excipient (saturated solution), pH 4, aqueous with cosolvent or surfactant or cyclodextrin, CBS 30 mM pH 4.0, PEG 100 mg/mL, pH exp 4.5): 400 µg/mL
- solubility at 0 h (buffered water with excipient (saturated solution), pH 4, aqueous with cosolvent or surfactant or cyclodextrin, CBS 30 mM pH 4.0, PEG 400 50 mg/mL, pH exp 4.1): 340 µg/mL
- solubility at 24 h (buffered water with excipient (saturated solution), pH 4, aqueous with cosolvent or surfactant or cyclodextrin, CBS 30 mM pH 4.0, PEG 400 50 mg/mL, pH exp 4.4): 230 µg/mL
- solubility at 0 h (buffered water with excipient (saturated solution), pH 4, aqueous with cosolvent or surfactant or cyclodextrin, CBS 30 mM pH 4.0, PEG 400 500 mg/mL, pH exp 6.3): 4100 µg/mL
- solubility at 24 h (buffered water with excipient (saturated solution), pH 4, aqueous with cosolvent or surfactant or cyclodextrin, CBS 30 mM pH 4.0, PEG 400 500 mg/mL, pH exp 6.4): ≥ 4550 µg/mL
- solubility at 0 h (buffered water with excipient (saturated solution), pH 4, aqueous with cosolvent or surfactant or cyclodextrin, CBS 30 mM pH 4.0, PG 50 mg/mL, pH exp 4.1): 200 µg/mL
- solubility at 24 h (buffered water with excipient (saturated solution), pH 4, aqueous with cosolvent or surfactant or cyclodextrin, CBS 30 mM pH 4.0, PG 50 mg/mL, pH exp 4.3): 110 µg/mL
- solubility at 0 h (buffered water with excipient (saturated solution), pH 4, aqueous with cosolvent or surfactant or cyclodextrin, CBS 30 mM pH 4.0, PG 100 mg/mL, pH exp 4.1): 280 µg/mL
- solubility at 24 h (buffered water with excipient (saturated solution), pH 4, aqueous with cosolvent or surfactant or cyclodextrin, CBS 30 mM pH 4.0, PG 100 mg/mL, pH exp 4.4): 150 µg/mL
- solubility at 0 h (buffered water with excipient (saturated solution), pH 4, aqueous with cosolvent or surfactant or cyclodextrin, CBS 30 mM pH 4.0, PG 500 mg/mL, pH exp 5.4): 3740 µg/mL
- solubility at 24 h (buffered water with excipient (saturated solution), pH 4, aqueous with cosolvent or surfactant or cyclodextrin, CBS 30 mM pH 4.0, PG 500 mg/mL, pH exp 5.3): 2200 µg/mL
- solubility at 0 h (buffered water with excipient (saturated solution), pH 5, aqueous with cosolvent or surfactant or cyclodextrin, CBS 30 mM pH 5.0, NaCl 3 mg/mL, SBE-beta-CD 40 mg/mL, pH exp 5.0): 2240 µg/mL
- solubility at 24 h (buffered water with excipient (saturated solution), pH 5, aqueous with cosolvent or surfactant or cyclodextrin, CBS 30 mM pH 5.0, NaCl 3 mg/mL, SBE-beta-CD 40 mg/mL, pH exp 5.3): 3520 µg/mL
- solubility at 0 h (buffered water with excipient (saturated solution), pH 5.5, aqueous with cosolvent or surfactant or cyclodextrin, CBS 30 mM pH 5.5, NaCl 3 mg/mL, SBE-beta-CD 40 mg/mL, pH exp 5.5): 1630 µg/mL
- solubility at 0 h [1]: 6590 µg/mL
- solubility at 24 h [1]: 5470 µg/mL
- solubility at 0 h (buffered water with excipients, pH 4, aqueous with cosolvent or surfactant or cyclodextrin, ABS (acetate) 30 mM pH 4.0, NaCl 3 mg/mL, SBE-beta-CD 40 mg/mL, pH exp 4.0): 2880 µg/mL
- solubility at 24 h (buffered water with excipients, pH 4, aqueous with cosolvent or surfactant or cyclodextrin, ABS (acetate) 30 mM pH 4.0, NaCl 3 mg/mL, SBE-beta-CD 40 mg/mL, pH exp 4.6): 3720 µg/mL
- solubility at 0 h (buffered water with excipients, pH 4, aqueous with cosolvent or surfactant or cyclodextrin, ASBS (aspartate) 30 mM pH 4.0, NaCl 3 mg/mL, SBE-beta-CD 40 mg/mL, pH exp 4.0): 2880 µg/mL
- solubility at 24 h (buffered water with excipients, pH 4, aqueous with cosolvent or surfactant or cyclodextrin, ASBS (aspartate) 30 mM pH 4.0, NaCl 3 mg/mL, SBE-beta-CD 40 mg/mL, pH exp 4.6): 3720 µg/mL
- solubility at 0 h (buffered water with excipients, pH 4, aqueous with cosolvent or surfactant or cyclodextrin, CBS 30 mM pH 4.0, NaCl 3 mg/mL, SBE-beta-CD 40 mg/mL + Glycerol 1 mg/mL, pH exp 4.1): 2400 µg/mL
- solubility at 24 h (buffered water with excipients, pH 4, aqueous with cosolvent or surfactant or cyclodextrin, CBS 30 mM pH 4.0, NaCl 3 mg/mL, SBE-beta-CD 40 mg/mL + Glycerol 1 mg/mL, pH exp 4.3): 3720 µg/mL
- solubility at 0 h (buffered water with excipients, pH 4, aqueous with cosolvent or surfactant or cyclodextrin, CBS 30 mM pH 4.0, NaCl 3 mg/mL, SBE-beta-CD 40 mg/mL + Glycerol 5 mg/mL, pH exp 4.2): 2320 µg/mL
- solubility at 24 h (buffered water with excipients, pH 4, aqueous with cosolvent or surfactant or cyclodextrin, CBS 30 mM pH 4.0, NaCl 3 mg/mL, SBE-beta-CD 40 mg/mL + Glycerol 5 mg/mL, pH exp 4.3): 3710 µg/mL
- solubility at 0 h (buffered water with excipients, pH 4, aqueous with cosolvent or surfactant or cyclodextrin, CBS 30 mM pH 4.0, NaCl 3 mg/mL, SBE-beta-CD 40 mg/mL + Glycerol 50 mg/mL, pH exp 4.1): 2330 µg/mL
- solubility at 24 h (buffered water with excipients, pH 4, aqueous with cosolvent or surfactant or cyclodextrin, CBS 30 mM pH 4.0, NaCl 3 mg/mL, SBE-beta-CD 40 mg/mL + Glycerol 50 mg/mL, pH exp 4.2): 3570 µg/mL
- solubility at 0 h (buffered water with excipients, pH 4, aqueous with cosolvent or surfactant or cyclodextrin, CBS 30 mM pH 4.0, NaCl 3 mg/mL, SBE-beta-CD 40 mg/mL + HPMC 5 mg/mL, pH exp 4.1): 2230 µg/mL
- solubility at 24 h (buffered water with excipients, pH 4, aqueous with cosolvent or surfactant or cyclodextrin, CBS 30 mM pH 4.0, NaCl 3 mg/mL, SBE-beta-CD 40 mg/mL + HPMC 5 mg/mL, pH exp 4.3): 3530 µg/mL
- solubility at 0 h (buffered water with excipients, pH 4, aqueous with cosolvent or surfactant or cyclodextrin, CBS 30 mM pH 4.0, NaCl 3 mg/mL, SBE-beta-CD 40 mg/mL + Kollidon 12 P188 5 mg/mL, pH exp 4.1): 2590 µg/mL
